Reference: patent publication US20110033393A1, “Hydrazone Compounds and Their Use” (priority 2009, published 2011)

Test system: isolated rat primary islets
Assay: Insulin release from isolated primary rat islets
Type: cell-based
Procedure: Isolation of Rat Islets: Islets were isolated from 226-250 g male Sprague Dawley rats from Taconic. The animals were initially anesthetized with CO2 gas and euthanized by cervical dislocation. The pancreatic duct was injected with 15 to 30 ml of Collagenase P (Roche Diagnostics catalog #1 249 002) at 0.6 mg/ml in Hanks' Balanced Salt Solution (HBSS) (Gibco Catalog #14025-076) supplemented with BSA (Sigma, catalog #A 7409) to a final concentration of 0.1%. The pancreas was excised and placed into a 20 ml scintillation vial, incubated in a water bath at 37° C. for 16 to 18 minutes and then shaken briskly for at least 60 seconds. The digested tissue was poured into a 50 ml conical tube (1 per tube) containing cold Hank's Buffer supplemented with BSA (as above) and washed 7-10 times. […]
Measurement of Insulin Release: Insulin release measurements were carried out in Krebs-Ringer bicarbonate buffer (118.4 mmol/liter NaCl, 4.69 mmol/liter KCl, 1.2 mmol/liter MgSO4, 1.18 mmol/liter KH2PO4, 2.4 mmol/liter CaCl2, and 20 mmol/liter NaHCO3 (equilibrated with 95% O2 and 5% CO2, pH 7.4) supplemented with BSA to a final concentration of 0.1%). […] Insulin release in the supernatant was assessed using a commercially available ELISA kit (Mercodia-Cat. #10-1124-10) according to the manufacturer's protocol. The data were expressed as pg of insulin per number of cells. […]

In the case of `Cc1cc(/C=N/NC(=O)C2CC2c2ccccc2)cc2cccnc12` (racemic) [Example 10, trans-N′-((8-Methylquinolin-6-yl)methylene)-2-phenylcyclopropanecarbohydrazide], the insulin secretion (3 mM glucose, compound up to 10 μM) is reported as “insulin secretion is not observed” and the insulin secretion (12 mM glucose, compared to the DMSO control) is reported as “significant dose-dependent increase in insulin secretion”.
